In patent US6355799B1, “Substituted benzene compounds, process for their preparation, and herbicidal and defoliant compositions containing them” (ISK Americas Incorporated, priority 1997, dated 2002):

How the values were obtained:
Format in all cases: in vivo
[1] = system: redroot pigweed (Amaranthus retroflexus, AMARE); assay: Pre-emerge test, greenhouse herbicide activity screening; settings: for phytotoxicity rating AMARE: pre-emerge, 14 days after application, rating scale 0-100; for Pre-emerge Herbicidal Activity AMARE: phytotoxicity rating 0-100, 14 days after application
Procedure, shortened: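 Compounds in acetone were track-sprayed at 187 l/ha, 15–1000 g ai/ha, onto sandy loam pots. Pre-emerge seeds were sown one day before spraying, with surface watering afterwards. Post-emerge plants were at the 2–3 leaf stage and sprayed with 0.25% v/v non-ionic surfactant. Injury was rated 0–100 at 14 days.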

[2] = system: barnyardgrass (Echinochloa crus-galli, ECHCG); assay: as above; settings: for phytotoxicity rating ECHCG: pre-emerge, 14 days after application, rating scale 0-100; for Pre-emerge Herbicidal Activity ECHCG: phytotoxicity rating 0-100, 14 days after application
From the text: (§1) A standard greenhouse herbicide activity screening system was used to evaluate the herbicidal efficacy and crop safety of these test compounds. Seven broadleaf weed species including redroot pigweed (Amaranthus retroflexus, AMARE, velvetleaf (Abutilon theophrasti, ABUTH), sicklepod (Cassia obtusifolia, CASOB), ivyleaf morningglory (Ipomoea hederacea, IPOHE), lambsquarters (Chenopodium album, CHEAL), common ragweed (Ambrosia artemisizfolia L., AMBEL), and cocklebur (Xanthium strumarium, XANST) were used as test species. Four grass weed species including green foxtail (Setaria viridis, SETVI), barnyardgrass (Echinochloa crus-galli, ECHCG), johnsongrass (Sorghum halepense, SORHA), and large crabgrass (Digitaria sanguinalis, DIGSA) were also used. In addition, three crop species, field corn (Zea mays L., var. Dekalb 535, CORN), soybean (Glycine max L., var. Pella 86, SOY), and is upland rice (Oryza sp., var. Tebonnet, RICE) were included.
(§2) All plants were grown in 10 cm square plastic pots which were filled with a sandy loam soil mix. For pre-emerge tests, seeds were planted one day prior to application of the test compounds. For post-emerge tests, seeds were planted 8-21 days prior to the test to allow emergence and good foliage development prior to application of the test substances. At the time of the post-emerge application, plants of all species were usually at the 2-3 leaf stage of development.
(§3) All test compounds Were dissolved in acetone and applied to the test units in a volume of 187 l /ha. Test materials were applied at rates ranging from 15 g ai/ha to 1000 g ai/ha using a track sprayer equipped with a TJ8001E even flow flat fan spray nozzle. Plants were arranged on a shelf so that the top of the canopy (post-emerge) or top of the soil surface (pre-emerge) was 40-45 cm below the nozzle. Pressurized air was used to force the test solution through the nozzle as it was mechanically advanced (via electrically driven chain drive) over the top of all test plants/pots. This application simulates a typical commercial field herbicide application.
(§4) In the post-emerge test, a commercial non-ionic surfactant was also included (0.25% v/v) to enhance wetting of the leaf surfaces of target plants. Immediately after application, test units of the pre-emerge applications were watered at the soil surface to incorporate the test materials. Subsequently, these test units were bottom-watered. Post-emerge test units were always bottom-watered.
(§5) At 14 days after application of the test materials, phytotoxicity ratings were recorded. A rating scale of 0-100 was used as previously described in Research Methods in Weed Science, 2nd edition, B. Truelove, Ed., Southern Weed Science Society, Auburn University, Auburn, Ala. 1977. Briefly, “0” corresponds to no damage and “100” corresponds to complete death of all plants in the test unit. This scale was used both to determine efficacy against weed species and damage to crop species. Herbicide activity data for various compounds of this invention, which are shown by compound No. in Tables 1-8, are shown in Tables 11 and 12.

[3] = system: green foxtail (Setaria viridis, SETVI); assay: as above; settings: for phytotoxicity rating SETVI: pre-emerge, 14 days after application, rating scale 0-100; for Pre-emerge Herbicidal Activity SETVI: phytotoxicity rating 0-100, 14 days after application
From the text: as §1, §2, §3, §4, §5

[4] = system: ivyleaf morningglory (Ipomoea hederacea, IPOHE); assay: as above; settings: for phytotoxicity rating IPOHE: pre-emerge, 14 days after application, rating scale 0-100; for Pre-emerge Herbicidal Activity IPOHE: phytotoxicity rating 0-100, 14 days after application
From the text: as §1, §2, §3, §4, §5

[5] = system: lambsquarters (Chenopodium album, CHEAL); assay: as above; settings: for phytotoxicity rating CHEAL: pre-emerge, 14 days after application, rating scale 0-100; for Pre-emerge Herbicidal Activity CHEAL: phytotoxicity rating 0-100, 14 days after application
From the text: as §1, §2, §3, §4, §5

[6] = system: large crabgrass (Digitaria sanguinalis, DIGSA); assay: as above; settings: for phytotoxicity rating DIGSA: pre-emerge, 14 days after application, rating scale 0-100; for Pre-emerge Herbicidal Activity DIGSA: phytotoxicity rating 0-100, 14 days after application
From the text: as §1, §2, §3, §4, §5

[7] = system: sicklepod (Cassia obtusifolia, CASOB); assay: as above; settings: for phytotoxicity rating CASOB: pre-emerge, 14 days after application, rating scale 0-100; for Pre-emerge Herbicidal Activity CASOB: phytotoxicity rating 0-100, 14 days after application
From the text: as §1, §2, §3, §4, §5

[8] = system: velvetleaf (Abutilon theophrasti, ABUTH); assay: as above; settings: for phytotoxicity rating ABUTH: pre-emerge, 14 days after application, rating scale 0-100; for Pre-emerge Herbicidal Activity ABUTH: phytotoxicity rating 0-100, 14 days after application
From the text: as §1, §2, §3, §4, §5

[9] = system: field corn (Zea mays L., var. Dekalb 535, CORN); assay: Pre-emerge test, crop safety; settings: for phytotoxicity rating CORN: pre-emerge, 14 days after application, rating scale 0-100; for Pre-emerge Herbicidal Activity CORN: crop damage rating 0-100, 14 days after application
Procedure, shortened: (§6)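 Visual ratings on a 0-100 scale (0 no damage, 100 all plants dead) were taken at 14 days after treatment. Rates of 15-1000 g ai/ha in acetone, 187 l/ha, were sprayed onto soil one day after planting (pre-emerge) or onto 2-3 leaf plants with 0.25% v/v surfactant (post-emerge).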

[10] = system: upland rice (Oryza sp., var. Tebonnet, RICE); assay: Pre-emerge test, crop safety; settings: for phytotoxicity rating RICE: pre-emerge, 14 days after application, rating scale 0-100; for Pre-emerge Herbicidal Activity RICE: crop damage rating 0-100, 14 days after application
Procedure, shortened: as §6

[11] = system: barnyardgrass (Echinochloa crus-galli, ECHCG); assay: Post-emerge test, greenhouse herbicide activity screening; settings: post-emerge, 14 days after application, rating scale 0-100
From the text: as §1, §2, §3, §4, §5

[12] = system: green foxtail (Setaria viridis, SETVI); assay: as above; settings: post-emerge, 14 days after application, rating scale 0-100
From the text: as §1, §2, §3, §4, §5

[13] = system: ivyleaf morningglory (Ipomoea hederacea, IPOHE); assay: as above; settings: post-emerge, 14 days after application, rating scale 0-100
From the text: as §1, §2, §3, §4, §5

[14] = system: lambsquarters (Chenopodium album, CHEAL); assay: as above; settings: post-emerge, 14 days after application, rating scale 0-100
From the text: as §1, §2, §3, §4, §5

[15] = system: large crabgrass (Digitaria sanguinalis, DIGSA); assay: as above; settings: post-emerge, 14 days after application, rating scale 0-100
From the text: as §1, §2, §3, §4, §5

[16] = system: redroot pigweed (Amaranthus retroflexus, AMARE); assay: as above; settings: post-emerge, 14 days after application
From the text: as §1, §2, §3, §4, §5

[17] = system: sicklepod (Cassia obtusifolia, CASOB); assay: as above; settings: post-emerge, 14 days after application, rating scale 0-100
From the text: as §1, §2, §3, §4, §5

[18] = system: velvetleaf (Abutilon theophrasti, ABUTH); assay: as above; settings: post-emerge, 14 days after application, rating scale 0-100
From the text: as §1, §2, §3, §4, §5

[19] = system: field corn (Zea mays L., var. Dekalb 535, CORN); assay: Post-emerge test, crop safety; settings: post-emerge, 14 days after application, rating scale 0-100
Procedure, shortened: (§7)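 Herbicidal damage is scored 0 (none) to 100 (complete plant death) two weeks after a simulated field spray. Rates span 15–1000 g ai/ha, delivered in acetone at 187 l/ha. For post-emergence treatments, plants have 2–3 leaves and the spray carries 0.25% v/v non-ionic surfactant.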

[20] = system: upland rice (Oryza sp., var. Tebonnet, RICE); assay: Post-emerge test, crop safety; settings: post-emerge, 14 days after application, rating scale 0-100
Procedure, shortened: as §7

[21] = 63 g ai/ha, rating scale 0-100 (0 no damage, 100 complete death)
[22] = 250 g ai/ha, rating scale 0-100

COc1c(Cl)cc(F)c(-n2c(=O)cc(C(F)(F)F)n(C)c2=O)c1NNC(=O)c1ccc(F)cc1F [15-4]
90: phytotoxicity rating CORN ([9]; 63 g ai/ha) | Post-emerge Herbicidal Activity ECHCG (phytotoxicity rating) ([11]; 250 g ai/ha) | Post-emerge Herbicidal Activity CORN (crop damage rating) ([19]; 250 g ai/ha)
100: phytotoxicity rating AMARE ([1]; 63 g ai/ha) | phytotoxicity rating AMARE ([1]; 250 g ai/ha) | phytotoxicity rating ECHCG ([2]; 250 g ai/ha) | phytotoxicity rating SETVI ([3]; 63 g ai/ha) | phytotoxicity rating SETVI ([3]; 250 g ai/ha) | phytotoxicity rating IPOHE ([4]; 63 g ai/ha) | phytotoxicity rating IPOHE ([4]; 250 g ai/ha) | phytotoxicity rating CHEAL ([5]; 63 g ai/ha) | phytotoxicity rating CHEAL ([5]; 250 g ai/ha) | phytotoxicity rating DIGSA ([6]; 63 g ai/ha) | phytotoxicity rating DIGSA ([6]; 250 g ai/ha) | phytotoxicity rating CASOB ([7]; 63 g ai/ha) | phytotoxicity rating CASOB ([7]; 250 g ai/ha) | phytotoxicity rating ABUTH ([8]; 63 g ai/ha) | phytotoxicity rating ABUTH ([8]; 250 g ai/ha) | phytotoxicity rating CORN ([9]; 250 g ai/ha) | phytotoxicity rating RICE ([10]; 250 g ai/ha) | Post-emerge Herbicidal Activity IPOHE (phytotoxicity rating) ([13]; 63 g ai/ha) | Post-emerge Herbicidal Activity IPOHE (phytotoxicity rating) ([13]; 250 g ai/ha) | Post-emerge Herbicidal Activity CHEAL (phytotoxicity rating) ([14]; 63 g ai/ha) | Post-emerge Herbicidal Activity CHEAL (phytotoxicity rating) ([14]; 250 g ai/ha) | Post-emerge Herbicidal Activity AMARE (phytotoxicity rating) [16, 22] | Post-emerge Herbicidal Activity ABUTH (phytotoxicity rating) ([18]; 63 g ai/ha) | Post-emerge Herbicidal Activity ABUTH (phytotoxicity rating) ([18]; 250 g ai/ha)
30: Post-emerge Herbicidal Activity DIGSA (phytotoxicity rating) ([15]; 63 g ai/ha)
70: Post-emerge Herbicidal Activity DIGSA (phytotoxicity rating) ([15]; 250 g ai/ha) | Post-emerge Herbicidal Activity AMARE (phytotoxicity rating) [16, 21] | Post-emerge Herbicidal Activity RICE (crop damage rating) ([20]; 63 g ai/ha)
80: phytotoxicity rating ECHCG ([2]; 63 g ai/ha) | phytotoxicity rating RICE ([10]; 63 g ai/ha) | Post-emerge Herbicidal Activity SETVI (phytotoxicity rating) ([12]; 250 g ai/ha) | Post-emerge Herbicidal Activity CASOB (phytotoxicity rating) ([17]; 250 g ai/ha)
50: Post-emerge Herbicidal Activity SETVI (phytotoxicity rating) ([12]; 63 g ai/ha) | Post-emerge Herbicidal Activity CASOB (phytotoxicity rating) ([17]; 63 g ai/ha) | Post-emerge Herbicidal Activity CORN (crop damage rating) ([19]; 63 g ai/ha)
95: Post-emerge Herbicidal Activity RICE (crop damage rating) ([20]; 250 g ai/ha)
40: Post-emerge Herbicidal Activity ECHCG (phytotoxicity rating) ([11]; 63 g ai/ha)

COc1ccc(COC(=O)Nc2c(OC)c(Cl)cc(F)c2-n2c(=O)cc(C(F)(F)F)n(C)c2=O)cc1 [4-40]
0: Pre-emerge Herbicidal Activity CORN ([9]; 63 g ai/ha)
40: phytotoxicity rating DIGSA ([15]; 63 g ai/ha) | phytotoxicity rating RICE (crop damage) ([20]; 63 g ai/ha)
90: Pre-emerge Herbicidal Activity IPOHE ([4]; 250 g ai/ha) | Pre-emerge Herbicidal Activity CASOB ([7]; 250 g ai/ha) | phytotoxicity rating ECHCG ([11]; 250 g ai/ha) | phytotoxicity rating SETVI ([12]; 250 g ai/ha) | phytotoxicity rating DIGSA ([15]; 250 g ai/ha)
60: Pre-emerge Herbicidal Activity ECHCG ([2]; 63 g ai/ha) | Pre-emerge Herbicidal Activity CASOB ([7]; 63 g ai/ha) | phytotoxicity rating RICE (crop damage) ([20]; 250 g ai/ha)
85: Pre-emerge Herbicidal Activity ECHCG ([2]; 250 g ai/ha)
80: phytotoxicity rating SETVI ([12]; 63 g ai/ha)
100: Pre-emerge Herbicidal Activity AMARE ([1]; 63 g ai/ha) | Pre-emerge Herbicidal Activity AMARE ([1]; 250 g ai/ha) | Pre-emerge Herbicidal Activity SETVI ([3]; 63 g ai/ha) | Pre-emerge Herbicidal Activity SETVI ([3]; 250 g ai/ha) | Pre-emerge Herbicidal Activity CHEAL ([5]; 63 g ai/ha) | Pre-emerge Herbicidal Activity CHEAL ([5]; 250 g ai/ha) | Pre-emerge Herbicidal Activity DIGSA ([6]; 63 g ai/ha) | Pre-emerge Herbicidal Activity DIGSA ([6]; 250 g ai/ha) | Pre-emerge Herbicidal Activity ABUTH ([8]; 63 g ai/ha) | Pre-emerge Herbicidal Activity ABUTH ([8]; 250 g ai/ha) | phytotoxicity rating IPOHE ([13]; 63 g ai/ha) | phytotoxicity rating IPOHE ([13]; 250 g ai/ha) | phytotoxicity rating CHEAL ([14]; 63 g ai/ha) | phytotoxicity rating CHEAL ([14]; 250 g ai/ha) | phytotoxicity rating AMARE [16, 21] | phytotoxicity rating AMARE [16, 22] | phytotoxicity rating CASOB ([17]; 63 g ai/ha) | phytotoxicity rating CASOB ([17]; 250 g ai/ha) | phytotoxicity rating ABUTH ([18]; 63 g ai/ha) | phytotoxicity rating ABUTH ([18]; 250 g ai/ha)
70: Pre-emerge Herbicidal Activity RICE ([10]; 250 g ai/ha) | phytotoxicity rating CORN (crop damage) ([19]; 250 g ai/ha)
75: Pre-emerge Herbicidal Activity CORN ([9]; 250 g ai/ha)
30: Pre-emerge Herbicidal Activity IPOHE ([4]; 63 g ai/ha) | Pre-emerge Herbicidal Activity RICE ([10]; 63 g ai/ha) | phytotoxicity rating CORN (crop damage) ([19]; 63 g ai/ha)
50: phytotoxicity rating ECHCG ([11]; 63 g ai/ha)
